Earlier results, collected in patent US7273889B2, “NMDA receptor antagonist formulation with reduced neurotoxicity” (Innovative Drug Delivery Systems, Inc., priority 2002, dated 2007).
Where a name gives a salt, the structure may show the parent alone.

Tests used:
[1] = tested on: spinal cord of the animals; conditions: multiple dose, intrathecally administered
[2] = at a pH up to 10
patients = conditions: use as an anesthetic agent

Compound: CNC1(c2ccccc2Cl)CCCCC1=O (stereo not drawn) [preservative-free ketamine, ketamine]
- neurotoxic effect [1]: without neurotoxic effect

Compound: benzalkonium chloride
- stability [2]: stable at room temperature

Compound: CNC1(c2ccccc2Cl)CCCCC1=O (stereo not drawn) [ketamine hydrochloride]
- occurrence of postoperative confusional states (emergence reactions) (patients): approximately 12% of patients
